Measured values reported in patent US12180193B2, “Accelerating fibrosarcoma protein degrading compounds and associated methods of use” (Arvinas Operations, Inc., priority 2020, dated 2024).

Assays:
[1] = biological target: T1, BRAF V600E (Homo sapiens, UniProt P15056, V600E); assay: Cellular assay of target protein degradation, T-Rex 293 cells stably transfected with HA-BRAF_V600E (HA immunofluorescence, high content imaging); format: cell-based; details: T-Rex 293 HA-BRAF V600E; for DC50: half maximal degradation, read-out: BRaf V600E DC50; for Dmax: maximum degradation observed
T1 construct: expressed in transfected cells
Method in brief: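 24 h compound exposure, 1 μM–0.1 nM final, 0.1% DMSO, 37 °C; cells induced with 1 ng/mL doxycycline. PFA fix, Triton permeabilize, anti-HA overnight 4 °C, Hoechst/phalloidin counterstain. Output: DC50, Dmax as % control.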

[2] = biological target: T2, BRAF G466V (Homo sapiens, UniProt P15056, G466V); assay: Cellular assay of target protein degradation, T-Rex 293 cells stably transfected with HA-BRAF G466V (HA immunofluorescence, high content imaging); format: cell-based; details: T-Rex 293 HA-BRAF G466V; for DC50: half maximal degradation, read-out: BRaf G466V DC50; for Dmax: maximum degradation observed
T2 construct: expressed in transfected cells
Method in brief: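 24 h compound, 30 nM–3 pM final, 0.1% DMSO, 37° C; HA-BRAF G466V induced with 0.75 ng/mL doxycycline. PFA fix, Triton perm, anti-HA + Alexa fluor secondary, Hoechst/phalloidin counterstain; imaging. DC50, Dmax (% of control).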

T2 sequence (P15056 whole entry G466V): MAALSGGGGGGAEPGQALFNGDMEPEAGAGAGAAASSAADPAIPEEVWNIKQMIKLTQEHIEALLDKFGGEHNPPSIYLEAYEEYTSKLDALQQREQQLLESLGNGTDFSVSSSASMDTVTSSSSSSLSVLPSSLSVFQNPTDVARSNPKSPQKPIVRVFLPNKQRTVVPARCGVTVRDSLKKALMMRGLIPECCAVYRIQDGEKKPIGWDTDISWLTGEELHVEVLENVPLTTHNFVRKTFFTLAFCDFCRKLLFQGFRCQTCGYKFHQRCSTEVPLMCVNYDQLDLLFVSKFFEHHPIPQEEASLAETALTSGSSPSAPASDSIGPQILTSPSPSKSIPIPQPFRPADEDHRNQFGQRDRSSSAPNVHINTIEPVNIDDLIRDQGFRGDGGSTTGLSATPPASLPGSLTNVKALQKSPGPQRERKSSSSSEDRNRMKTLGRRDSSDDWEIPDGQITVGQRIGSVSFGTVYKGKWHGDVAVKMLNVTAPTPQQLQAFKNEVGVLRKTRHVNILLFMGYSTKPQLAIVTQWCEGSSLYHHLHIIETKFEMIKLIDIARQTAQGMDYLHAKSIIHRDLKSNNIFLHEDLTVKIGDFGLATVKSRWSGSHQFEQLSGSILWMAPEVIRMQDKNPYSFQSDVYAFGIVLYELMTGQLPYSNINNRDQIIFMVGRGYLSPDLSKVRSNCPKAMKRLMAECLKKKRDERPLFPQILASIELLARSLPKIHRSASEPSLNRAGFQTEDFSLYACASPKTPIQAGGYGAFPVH
T1 sequence (P15056 whole entry V600E): as the sequence (P15056 whole entry G466V) above, with V466G, V600E counted along it

Row | Structure (SMILES) | DC50 [1] [nM] | Dmax [1] [%] | DC50 [2] [nM] | Dmax [2] [%]
1 | O=C1CC[C@H](N2Cc3cc(C4CCN(CC5CCN(c6ccc(-c7cnc8[nH]cc(C(=O)c9c(F)ccc(NS(=O)(=O)CC%10CC%10)c9F)c8c7)cc6)CC5)CC4)ccc3C2=O)C(=O)N1 [Compound 206, 1-cyclopropyl-N-{3-[5-(4-{4-[(4-{2-[(3S)-2,6-dioxopiperidin-3-yl]-1-oxo-2,3-dihydro-1H-isoindol-5-yl}piperidin-1-yl)methyl]piperidin-1-yl}phenyl)-1H-pyrrolo[2,3-b]pyridine-3-carbonyl]-2,4-difluorophenyl}methanesulfonamide] | 5 to 50 | 35 to 70 | < 1 | 35 to 70
2 | COc1c(NS(=O)(=O)N2CC[C@@H](F)C2)ccc(F)c1C(=O)c1c[nH]c2ncc(-c3ccc(N4CCC(CN5CCC(c6ccc7c(c6)CN([C@H]6CCC(=O)NC6=O)C7=O)CC5)CC4)cc3)cc12 [Compound 207, (3R)—N-{3-[5-(4-{4-[(4-{2-[(3S)-2,6-dioxopiperidin-3-yl]-1-oxo-2,3-dihydro-1H-isoindol-5-yl}piperidin-1-yl)methyl]piperidin-1-yl}phenyl)-1H-pyrrolo[2,3-b]pyridine-3-carbonyl]-4-fluoro-2-methoxyphenyl}-3-fluoropyrrolidine-1-sulfonamide] | 5 to 50 | 35 to 70 | < 1 | 35 to 70
3 | CC(C)N(C)S(=O)(=O)Nc1ccc(F)c(C(=O)c2c[nH]c3ncc(-c4ccc(N5CCC(CN6CCC(c7ccc8c(c7)CN([C@H]7CCC(=O)NC7=O)C8=O)CC6)CC5)cc4)cc23)c1F [Compound 208, (3S)-3-(5-{1-[(1-{4-[3-(2,6-difluoro-3-{[methyl(propan-2-yl)sulfamoyl]amino}benzoyl)-1H-pyrrolo[2,3-b]pyridin-5-yl]phenyl}piperidin-4-yl)methyl]piperidin-4-yl}-1-oxo-2,3-dihydro-1H-isoindol-2-yl)piperidine-2,6-dione] | 5 to 50 | 35 to 70 | < 1 | 35 to 70
4 | O=C1CCC(N2Cc3cc(N4CC(CN5CCN(C6CCN(c7ccc(-c8cnc9[nH]cc(C(=O)c%10c(F)ccc(NS(=O)(=O)N%11CC[C@@H](F)C%11)c%10F)c9c8)cc7)CC6)CC5)C4)ccc3C2=O)C(=O)N1 (stereo partly drawn) [Compound 209, (3R)—N-{3-[5-(4-{4-[4-({1-[2-(2,6-dioxopiperidin-3-yl)-1-oxo-2,3-dihydro-1H-isoindol-5-yl]azetidin-3-yl}methyl)piperazin-1-yl]piperidin-1-yl}phenyl)-1H-pyrrolo[2,3-b]pyridine-3-carbonyl]-2,4-difluorophenyl}-3-fluoropyrrolidine-1-sulfonamide] | 5 to 50 | < 35 | 1 to 10 | 35 to 70
5 | CNc1cc(-c2cnc3[nH]cc(C(=O)c4c(F)ccc(NS(=O)(=O)N5CC[C@@H](F)C5)c4F)c3c2)ccc1N1CCC(CN2CCC(c3ccc4c(c3)CN([C@H]3CCC(=O)NC3=O)C4=O)CC2)CC1 [Compound 210, (3R)—N-{3-[5-(4-{4-[(4-{2-[(3S)-2,6-dioxopiperidin-3-yl]-1-oxo-2,3-dihydro-1H-isoindol-5-yl}piperidin-1-yl)methyl]piperidin-1-yl}-3-(methylamino)phenyl)-1H-pyrrolo[2,3-b]pyridine-3-carbonyl]-2,4-difluorophenyl}-3-fluoropyrrolidine-1-sulfonamide] | 5 to 50 | 35 to 70 | 1 to 10 | > 70
6 | C[C@H]1CCCN1S(=O)(=O)Nc1ccc(F)c(C(=O)c2c[nH]c3ncc(-c4ccc(N5CCC(CN6CCC(c7ccc8c(c7)CN([C@H]7CCC(=O)NC7=O)C8=O)CC6)CC5)cc4)cc23)c1F [Compound 211, (2S)—N-{3-[5-(4-{4-[(4-{2-[(3S)-2,6-dioxopiperidin-3-yl]-1-oxo-2,3-dihydro-1H-isoindol-5-yl}piperidin-1-yl)methyl]piperidin-1-yl}phenyl)-1H-pyrrolo[2,3-b]pyridine-3-carbonyl]-2,4-difluorophenyl}-2-methylpyrrolidine-1-sulfonamide] | 5 to 50 | 35 to 70 | 1 to 10 | 35 to 70
7 | COc1ccc(NS(=O)(=O)N2CC[C@@H](F)C2)c(F)c1C(=O)c1c[nH]c2ncc(-c3ccc(N4CCC(CN5CCC(c6ccc7c(c6)CN([C@H]6CCC(=O)NC6=O)C7=O)CC5)CC4)cc3)cc12 [Compound 212, (3R)—N-{3-[5-(4-{4-[(4-{2-[(3S)-2,6-dioxopiperidin-3-yl]-1-oxo-2,3-dihydro-1H-isoindol-5-yl}piperidin-1-yl)methyl]piperidin-1-yl}phenyl)-1H-pyrrolo[2,3-b]pyridine-3-carbonyl]-2-fluoro-4-methoxyphenyl}-3-fluoropyrrolidine-1-sulfonamide] | 5 to 50 | 35 to 70 | 1 to 10 | > 70

The remaining lines, values ahead:

Row | DC50 [1] [nM] | Dmax [1] [%] | DC50 [2] [nM] | Dmax [2] [%] | Structure (SMILES)
8 | 5 to 50 | 35 to 70 | 1 to 10 | > 70 | CN(CC(F)F)S(=O)(=O)Nc1ccc(F)c(C(=O)c2c[nH]c3ncc(-c4ccc(N5CCC(CN6CCC(c7ccc8c(c7)CN(C7CCC(=O)NC7=O)C8=O)CC6)CC5)cc4)cc23)c1F (stereo not drawn) [Compound 213, 3-(5-{1-[(1-{4-[3-(3-{[(2,2-difluoroethyl)(methyl)sulfamoyl]amino}-2,6-difluorobenzoyl)-1H-pyrrolo[2,3-b]pyridin-5-yl]phenyl}piperidin-4-yl)methyl]piperidin-4-yl}-1-oxo-2,3-dihydro-1H-isoindol-2-yl) piperidine-2,6-dione]
9 | 5 to 50 | < 35 | 1 to 10 | 35 to 70 | O=C1CCC(N2Cc3cc(N4CCC(C5CCN(c6ccc(-c7cnc8[nH]cc(C(=O)c9c(F)ccc(NS(=O)(=O)N%10CC[C@@H](F)C%10)c9F)c8c7)cc6)CC5)CC4)ccc3C2=O)C(=O)N1 (stereo partly drawn) [Compound 214, (3R)-N-{3-[5-(4-{1′-[2-(2,6-dioxopiperidin-3-yl)-1-oxo-2,3-dihydro-1H-isoindol-5-yl]-[4,4′-bipiperidin]-1-yl}phenyl)-1H-pyrrolo[2,3-b]pyridine-3-carbonyl]-2,4-difluorophenyl}-3-fluoropyrrolidine-1-sulfonamide]
10 | 5 to 50 | 35 to 70 | 1 to 10 | > 70 | O=C1CCC(N2Cc3cc(C4CCN(CC5CCN(c6cnc(-c7cnc8[nH]cc(C(=O)c9c(F)ccc(NS(=O)(=O)N%10CC[C@@H](F)C%10)c9F)c8c7)nc6)CC5)CC4)ccc3C2=O)C(=O)N1 (stereo partly drawn) [Compound 215, (3R)-N-[3-(5-{5-[4-({4-[2-(2,6-dioxopiperidin-3-yl)-1-oxo-2,3-dihydro-1H-isoindol-5-yl]piperidin-1-yl}methyl)piperidin-1-yl]pyrimidin-2-yl}-1H-pyrrolo[2,3-b]pyridine-3-carbonyl)-2,4-difluorophenyl]-3-fluoropyrrolidine-1-sulfonamide]
11 | 5 to 50 | < 35 | 1 to 10 | > 70 | O=C1CCC(N2Cc3cc(C4CCN(CC[C@@H]5CCN(c6ccc(-c7cnc8[nH]cc(C(=O)c9c(F)ccc(NS(=O)(=O)N%10CC[C@@H](F)C%10)c9F)c8c7)cc6)C5)CC4)ccc3C2=O)C(=O)N1 (stereo partly drawn) [Compound 216, (3R)-N-[3-(5-{4-[(3R)-3-(2-{4-[2-(2,6-dioxopiperidin-3-yl)-1-oxo-2,3-dihydro-1H-isoindol-5-yl]piperidin-1-yl}ethyl)pyrrolidin-1-yl]phenyl}-1H-pyrrolo [2,3-b]pyridine-3-carbonyl)-2,4-difluorophenyl]-3-fluoropyrrolidine-1-sulfonamide]
12 | 5 to 50 | 35 to 70 | 10 to 30 | > 70 | O=C1CCC(N2Cc3cc(C4CCN(CC[C@H]5CCN(c6ccc(-c7cnc8[nH]cc(C(=O)c9c(F)ccc(NS(=O)(=O)N%10CC[C@@H](F)C%10)c9F)c8c7)cc6)C5)CC4)ccc3C2=O)C(=O)N1 (stereo partly drawn) [Compound 217, (3R)-N-[3-(5-{4-[(3S)-3-(2-{4-[2-(2,6-dioxopiperidin-3-yl)-1-oxo-2,3-dihydro-1H-isoindol-5-yl]piperidin-1-yl}ethyl)pyrrolidin-1-yl]phenyl}-1H-pyrrolo [2,3-b]pyridine-3-carbonyl)-2,4-difluorophenyl]-3-fluoropyrrolidine-1-sulfonamide]
13 | > 500 |  | > 30 |  | O=C1CCC(N2Cc3cc(C4CCN(CCC5CN(c6ccc(-c7cnc8[nH]cc(C(=O)c9c(F)ccc(NS(=O)(=O)N%10CC[C@@H](F)C%10)c9F)c8c7)cc6)C5)CC4)ccc3C2=O)C(=O)N1 (stereo partly drawn) [Compound 218, (3R)-N-[3-(5-{4-[3-(2-{4-[2-(2,6-dioxopiperidin-3-yl)-1-oxo-2,3-dihydro-1H-isoindol-5-yl]piperidin-1-yl}ethyl)azetidin-1-yl]phenyl}-1H-pyrrolo[2,3-b]pyridine-3-carbonyl)-2,4-difluorophenyl]-3-fluoropyrrolidine-1-sulfonamide]
14 | 5 to 50 | 35 to 70 | 1 to 10 | > 70 | O=C1CC[C@H](N2Cc3cc(N4CCN(CC5CCN(c6ccc(-c7cnc8[nH]cc(C(=O)c9c(F)ccc(NS(=O)(=O)N%10CC[C@@H](F)C%10)c9F)c8c7)cc6)CC5)CC4)ccc3C2=O)C(=O)N1 [Compound 219, (3R)-N-{3-[5-(4-{4-[(4-{2-[(3S)-2,6-dioxopiperidin-3-yl]-1-oxo-2,3-dihydro-1H-isoindol-5-yl}piperazin-1-yl)methyl]piperidin-1-yl}phenyl)-1H-pyrrolo [2,3-b]pyridine-3-carbonyl]-2,4-difluorophenyl}-3-fluoropyrrolidine-1-sulfonamide]
